{"source": "patent US8318792B2", "about": "“Therapeutic agent for amyotrophic lateral sclerosis” (Nippon Medical School Foundation, priority 2006, dated 2012)", "type_in_all_cases": "in vivo, mouse", "key": {"[1]": {"tested_on": "G1H-G93A transgenic mice", "experiment": "Exercise tolerance test: extension reflex test", "conditions": "for Extension reflex test score: 5 mg/kg oral daily from 80th day (before onset), score 0-2", "method": "(§1) The following five kinds of exercise tolerance tests were conducted every fifth day from the 70th day after birth to evaluate the ability to exercise in the respective exercise tolerance tests. That is, the days for the exercise tolerance tests were every fifth days, such as the 70th day, 75th day, 80th day, 85th day and so on, after birth. The exercise tolerance tests were conducted throughout the survival period, and the post-mortem evaluation was based on the definitions of the following five kinds of exercise tolerance tests.\nAs for extension reflex, extension of the hindlimbs is normally observed when a mouse is suspended in the air by its tail.\nThe evaluation of extension reflex test of the mice was performed based on the following criteria: Score 0=Extension reflex is recognized in both of the hindlimbs; Score 1=Extension reflex is recognized only one hindlimb; and Score 2=Extension reflex is not recognized in both of the hindlimbs. The post-mortem evaluation of the extension reflex test is defined as score 2."}, "[2]": {"tested_on": "G1H-G93A transgenic mice", "experiment": "Exercise tolerance test: rotarod test", "conditions": "for Rotarod test score: 5 mg/kg oral daily from 80th day (before onset), score 0-3", "method": "as §1\nThe apparatus used in the Rotarod test (Rota Rod Treadmill type 7600, Ugo Basile Co., Milano, Italy) is a rotating axle having a diameter of 3.6 cm, and this rotating axle is set up so as to have 16 revolution per minute (one rotation: 3.75 seconds). The period for which a mouse can remain on a rotating axle without falling is measured. The evaluation of the rotarod test for the mouse was performed based on the following criteria: Score 0=The time exceeds 60 seconds; Score 1=The time is more than 30 seconds and 60 seconds or less; Score 2=The time is more than 4 seconds and 30 seconds or less; and Score 3=The time is 4 seconds or less. The post-mortem evaluation of the rotarod test is defined as score 3."}, "[3]": {"tested_on": "G1H-G93A transgenic mice", "experiment": "Exercise tolerance test: inclined plane test", "conditions": "for Inclined plane test score: 5 mg/kg oral daily from 80th day (before onset), score 0-3, 5 mg/kg", "method": "as §1\nThe apparatus used in the inclined plane test is an apparatus allowing a wooden board to be fixed at the respective angles of 45°, 65° and 80° from a horizontal plane. A mouse is placed in the posture of head-up position on the wooden board inclined at each angle and the mouse is allowed to maintain this position for 5 seconds without falling downward. In the evaluation method of the inclined plane test for each mouse, the number of seconds (TA seconds: 5 seconds or less) during which the position could be maintained without falling downward is measured at each of the angles (A) of 45°, 65° and 80°, and then the total sum value of the products of the angle (A) and the number of seconds (TA) during which the position could be maintained: Σ [Angle(A)×Time (TA)] is calculated. Since a normal mouse is capable of maintaining the position on the wooden board inclined to the respective angles for 5 seconds, the sum value of Σ [Angle(A)×Time (TA)] will be 80×5+65×5+45×5=950. The evaluation of the inclined plane test for the mouse was performed based on the following criteria: Score 0=950; Score 1=over 550 to less than 950; Score 2=over 225 to 550; and Score 3=225 and below. The post-mortem evaluation of the inclined plane test is defined as score 3."}}, "data": [{"smiles": "Cc1nc(-c2ccc(OCC(C)C)c(C#N)c2)sc1C(=O)O", "note": "[compound (c), 2-[3-cyano-4-(2-methylpropoxy)phenyl]-4-methyl-5-thiazolecarboxylic acid]", "values": [{"measurement": "Extension reflex test score", "setting": "[1]; 70th day after birth, 5 mg/kg", "value": "0.0±0.0"}, {"measurement": "Extension reflex test score", "setting": "[1]; 75th day after birth, 5 mg/kg", "value": "0.0±0.0"}, {"measurement": "Extension reflex test score", "setting": "[1]; 80th day after birth, 5 mg/kg", "value": "0.0±0.0"}, {"measurement": "Extension reflex test score", "setting": "[1]; 85th day after birth, 5 mg/kg", "value": "0.0±0.0"}, {"measurement": "Extension reflex test score", "setting": "[1]; 90th day after birth, 5 mg/kg", "value": "0.0±0.0"}, {"measurement": "Extension reflex test score", "setting": "[1]; 95th day after birth, 5 mg/kg", "value": "0.0±0.0"}, {"measurement": "Extension reflex test score", "setting": "[1]; 100th day after birth, 5 mg/kg", "value": "0.0±0.0"}, {"measurement": "Extension reflex test score", "setting": "[1]; 105th day after birth, 5 mg/kg", "value": "0.0±0.0"}, {"measurement": "effect in extension reflex test as compared to placebo group", "setting": "[1]; 105th, 110th, 115th and 120th day, 5 mg/kg oral daily from 80th day after birth, Mann-Whitney's U test", "value": "significant effects"}, {"measurement": "Extension reflex test score", "setting": "[1]; 110th day after birth, 5 mg/kg", "value": "0.1±0.3"}, {"measurement": "Extension reflex test score", "setting": "[1]; 115th day after birth, 5 mg/kg", "value": "0.5±0.5"}, {"measurement": "Extension reflex test score", "setting": "[1]; 120th day after birth, 5 mg/kg", "value": "1.1±0.6"}, {"measurement": "Extension reflex test score", "setting": "[1]; 125th day after birth, 5 mg/kg", "value": "1.7±0.5"}, {"measurement": "Extension reflex test score", "setting": "[1]; 130th day after birth", "value": "2.0 ± 0.0"}, {"measurement": "Extension reflex test score", "setting": "[1]; 135th day after birth", "value": "2.0 ± 0.0"}, {"measurement": "Extension reflex test score", "setting": "[1]; 140th day after birth", "value": "2.0 ± 0.0"}, {"measurement": "Extension reflex test score", "setting": "[1]; from the 130th day to 140th day after birth", "value": "2.0±0.0"}, {"measurement": "Rotarod test score", "setting": "[2]; 70th day after birth, 5 mg/kg", "value": "0.0±0.0"}, {"measurement": "Rotarod test score", "setting": "[2]; 75th day after birth, 5 mg/kg", "value": "0.0±0.0"}, {"measurement": "Rotarod test score", "setting": "[2]; 80th day after birth, 5 mg/kg", "value": "0.0±0.0"}, {"measurement": "Rotarod test score", "setting": "[2]; 85th day after birth, 5 mg/kg", "value": "0.0±0.0"}, {"measurement": "Rotarod test score", "setting": "[2]; 90th day after birth, 5 mg/kg", "value": "0.0±0.0"}, {"measurement": "Rotarod test score", "setting": "[2]; 95th day after birth, 5 mg/kg", "value": "0.0±0.0"}, {"measurement": "Rotarod test score", "setting": "[2]; 100th day after birth, 5 mg/kg", "value": "0.0±0.0"}, {"measurement": "Rotarod test score", "setting": "[2]; 105th day after birth, 5 mg/kg", "value": "0.0±0.0"}, {"measurement": "effect in rotarod test as compared to placebo group", "setting": "[2]; 105th, 110th and 115th day, 5 mg/kg oral daily from 80th day after birth, Mann-Whitney's U test", "value": "significant effects"}, {"measurement": "Rotarod test score", "setting": "[2]; 110th day after birth, 5 mg/kg", "value": "0.4±0.8"}, {"measurement": "Rotarod test score", "setting": "[2]; 115th day after birth, 5 mg/kg", "value": "1.3±1.3"}, {"measurement": "Rotarod test score", "setting": "[2]; 120th day after birth, 5 mg/kg", "value": "2.5±0.5"}, {"measurement": "Rotarod test score", "setting": "[2]; 125th day after birth", "value": "3.0 ± 0.0"}, {"measurement": "Rotarod test score", "setting": "[2]; 130th day after birth", "value": "3.0 ± 0.0"}, {"measurement": "Rotarod test score", "setting": "[2]; 135th day after birth", "value": "3.0 ± 0.0"}, {"measurement": "Rotarod test score", "setting": "[2]; 140th day after birth", "value": "3.0 ± 0.0"}, {"measurement": "Rotarod test score", "setting": "[2]; from the 125th day to 140th day after birth", "value": "3.0±0.0"}, {"measurement": "Inclined plane test score", "setting": "[3]; 70th day after birth", "value": "0.0±0.0"}, {"measurement": "Inclined plane test score", "setting": "[3]; 75th day after birth", "value": "0.0±0.0"}, {"measurement": "Inclined plane test score", "setting": "[3]; 80th day after birth", "value": "0.0±0.0"}, {"measurement": "Inclined plane test score", "setting": "[3]; 85th day after birth", "value": "0.0±0.0"}, {"measurement": "Inclined plane test score", "setting": "[3]; 90th day after birth", "value": "0.0±0.0"}, {"measurement": "Inclined plane test score", "setting": "[3]; 95th day after birth", "value": "0.0±0.0"}, {"measurement": "Inclined plane test score", "setting": "[3]; 100th day after birth", "value": "0.0±0.0"}, {"measurement": "Inclined plane test score", "setting": "[3]; 105th day after birth", "value": "0.0±0.0"}, {"measurement": "Inclined plane test score", "setting": "[3]; 110th day after birth", "value": "0.0±0.0"}, {"measurement": "effect in inclined plane test as compared to placebo group", "setting": "[3]; 110th, 115th, 120th, 125th and 130th day, 5 mg/kg oral daily from 80th day after birth, Mann-Whitney's U test", "value": "significant effects"}, {"measurement": "Inclined plane test score", "setting": "[3]; 115th day after birth", "value": "0.1±0.3"}, {"measurement": "Inclined plane test score", "setting": "[3]; 120th day after birth", "value": "0.8±0.6"}, {"measurement": "Inclined plane test score", "setting": "[3]; 125th day after birth", "value": "1.2±0.8"}, {"measurement": "Inclined plane test score", "setting": "[3]; 130th day after birth", "value": "2.3±0.7"}, {"measurement": "Inclined plane test score", "setting": "[3]; 135th day after birth", "value": "2.9±0.3"}, {"measurement": "Inclined plane test score", "setting": "[3]; 140th day after birth", "value": "3.0±0.0"}]}]}
